What was measured:
[1] = tested on: bicistronic HCV replicon (replicon RNA, GenBank Accession No. AJ242654); assay: HCV Replicon Assay; assay type: cell-based; details: Hepatitis C virus, 72 h, read-out: Replicon IC50

Structure (SMILES) | IC50 [1] [nM] | melting point
N#Cc1c(-c2ccc(S(=O)(=O)NC(CF)CF)cn2)n(-c2ccccc2)c2ccc(Cl)cc12 [compound 112, 6-(5-chloro-3-cyano-1-phenyl-1H-indol-2-yl)-N-(1,3-difluoropropan-2-yl)pyridine-3-sulfonamide] | < 500 | 192 to 196 °C
Cc1cc2c(cc1F)c(C#N)c(-c1ccc(S(=O)(=O)N[C@@H](C)C(F)(F)F)cn1)n2-c1cncnc1 [compound 894, 6-[3-cyano-5-fluoro-6-methyl-1-(pyrimidin-5-yl)-1H-indol-2-yl]-N-[(2S)-1,1,1-trifluoropropan-2-yl]pyridine-3-sulfonamide] | < 500 | 198 to 202 °C
C[C@H](NS(=O)(=O)c1cnc(-c2c(C#N)c3cc(F)ccc3n2C2CCCCC2)nc1)C(F)(F)F [compound 393, 2-(3-cyano-1-cyclohexyl-5-fluoro-1H-indol-2-yl)-N-[(2S)-1,1,1-trifluoropropan-2-yl]pyrimidine-5-sulfonamide] | < 500 | 236 to 238 °C
C[C@@H](NS(=O)(=O)c1ccc(-c2c(C#N)c3ccc(OC(F)F)cc3n2-c2ccccc2)nc1)C(F)(F)F [compound 554, 6-[3-cyano-6-(difluoromethoxy)-1-phenyl-1H-indol-2-yl]-N-[(2R)-1,1,1-trifluoropropan-2-yl]pyridine-3-sulfonamide] | < 500 | 212 to 213 °C
CCc1cc(F)c2c(C(N)=O)c(-c3ccc(NS(=O)(=O)C(C)(C)C)nc3)n(C3CCC3)c2c1 [compound 1118, 2-{6-[(tert-butylsulfonyl)amino]pyridin-3-yl}-1-cyclobutyl-6-ethyl-4-fluoro-1H-indole-3-carboxamide] | < 500 | 263 to 268 °C
CCc1cc2c(cc1F)c(C(N)=O)c(-c1ccc(S(=O)(=O)N[C@@H](C)C(F)(F)F)cn1)n2-c1cccc(Cl)c1 [compound 1027, 1-(3-chlorophenyl)-6-ethyl-5-fluoro-2-(5-{[(2S)-1,1,1-trifluoropropan-2-yl]sulfamoyl}pyridin-2-yl)-1H-indole-3-carboxamide] | < 500 | 200 to 205 °C
C[C@H](NS(=O)(=O)c1ccc(-c2c(C#N)c3cc(Cl)ccc3n2-c2ccccc2)nc1)C(F)(F)F [compound 441, 6-(5-chloro-3-cyano-1-phenyl-1H-indol-2-yl)-N-[(2S)-1,1,1-trifluoropropan-2-yl]pyridine-3-sulfonamide] | < 500 | 210 to 212 °C
C[C@H](NS(=O)(=O)c1cnc(-c2c(C#N)c3cc(Cl)ccc3n2C2CCCCC2)nc1)C(F)(F)F [compound 464, 2-(5-chloro-3-cyano-1-cyclohexyl-1H-indol-2-yl)-N-[(2S)-1,1,1-trifluoropropan-2-yl]pyrimidine-5-sulfonamide] | 500 to 2000 | 253 to 255 °C
CCc1cc2c(cc1F)c(C(N)=O)c(-c1ccc(S(=O)(=O)N[C@@H](C)C(F)(F)F)cn1)n2-c1ccncc1 [compound 1045, 6-ethyl-5-fluoro-1-(pyridin-4-yl)-2-(5-{[(2S)-1,1,1-trifluoropropan-2-yl]sulfamoyl}pyridin-2-yl)-1H-indole-3-carboxamide] | < 500 | 219 to 224 °C
C[C@@H](NS(=O)(=O)c1ccc(-c2c(C#N)c3ccc(OC(F)(F)F)cc3n2C2CCCCC2)nc1)C(F)(F)F [compound 304, 6-[3-cyano-1-cyclohexyl-6-(trifluoromethoxy)-1H-indol-2-yl]-N-[(2R)-1,1,1-trifluoropropan-2-yl]pyridine-3-sulfonamide] | < 500 | 181 to 183 °C
N#Cc1c(-c2ccc(S(=O)(=O)NC(CF)CF)cn2)n(C2CCCCC2)c2ccc(F)cc12 [compound 104, 6-(3-cyano-1-cyclohexyl-5-fluoro-1H-indol-2-yl)-N-(1,3-difluoropropan-2-yl)pyridine-3-sulfonamide] | < 500 | 138 to 141 °C
Cc1cc2c(C#N)c(-c3ccc(S(=O)(=O)N[C@@H](C)C(F)(F)F)cn3)n(-c3ccccn3)c2cc1F [compound 917, 6-[3-cyano-6-fluoro-5-methyl-1-(pyridin-2-yl)-1H-indol-2-yl]-N-[(2S)-1,1,1-trifluoropropan-2-yl]pyridine-3-sulfonamide] | < 500 | 175 to 180 °C
C[C@H](NS(=O)(=O)c1cnc(-c2c(C#N)c3ccc(OC(F)F)cc3n2C2CCCC2)nc1)C1CC1 [compound 209, 2-[3-cyano-1-cyclopentyl-6-(difluoromethoxy)-1H-indol-2-yl]-N-[(1S)-1-cyclopropylethyl]pyrimidine-5-sulfonamide] | < 500 | 183 to 185 °C
Cc1ccc2c(c1)c(C#N)c(-c1ccc(S(=O)(=O)N[C@@H](C)C3CC3)cn1)n2CC1CC1 [compound 525, 6-[3-cyano-1-(cyclopropylmethyl)-5-methyl-1H-indol-2-yl]-N-[(1S)-1-cyclopropylethyl]pyridine-3-sulfonamide] | 500 to 2000 | 181 to 185 °C
C[C@H](NS(=O)(=O)c1ccc(-c2c(C#N)c3ccc(C#N)cc3n2CC2CC2)nc1)C(F)(F)F [compound 349, 6-[3,6-dicyano-1-(cyclopropylmethyl)-1H-indol-2-yl]-N-[(2S)-1,1,1-trifluoropropan-2-yl]pyridine-3-sulfonamide] | 500 to 2000 | 187 to 188 °C
Cc1ccc2c(C#N)c(-c3ccc(S(=O)(=O)N[C@@H](C)C(F)(F)F)cn3)n(C3CCCC3)c2c1 [compound 352, 6-(3-cyano-1-cyclopentyl-6-methyl-1H-indol-2-yl)-N-[(2S)-1,1,1-trifluoropropan-2-yl]pyridine-3-sulfonamide] | < 500 | 176 to 180 °C
COc1ccnc(-n2c(-c3ccc(S(=O)(=O)N[C@@H](C)C(F)(F)F)cn3)c(C(N)=O)c3cc(F)c(C)cc32)n1 [compound 906, 5-fluoro-1-(4-methoxypyrimidin-2-yl)-6-methyl-2-(5-{[(2S)-1,1,1-trifluoropropan-2-yl]sulfamoyl}pyridin-2-yl)-1H-indole-3-carboxamide] | < 500 | 167 to 174 °C
CC(C)S(=O)(=O)Nc1ccc(-c2c(C#N)c3ccc(OCC(F)(F)F)cc3n2CC2CC2)nc1 [compound 283, N-{6-[3-cyano-1-(cyclopropylmethyl)-6-(2,2,2-trifluoroethoxy)-1H-indol-2-yl]pyridin-3-yl}propane-2-sulfonamide] | 2000 to 5000 | 188 to 193 °C
Cc1cc2c(cc1F)c(C(N)=O)c(-c1ccc(S(=O)(=O)NC(C)(C)C)cn1)n2C1CCCCC1 [compound 1115, 2-[5-(tert-butylsulfamoyl)pyridin-2-yl]-1-cyclohexyl-5-fluoro-6-methyl-1H-indole-3-carboxamide] | < 500 | 274.5 to 275.6 °C
CCc1cc2c(cc1F)c(C(=O)O)c(-c1ccc(NS(=O)(=O)C(C)(C)C)nc1)n2[C@H](C)C1CC1 [compound 1103, 2-{6-[(tert-butylsulfonyl)amino]pyridin-3-yl}-1-[(1R)-1-cyclopropylethyl]-6-ethyl-5-fluoro-1H-indole-3-carboxylic acid] | 500 to 2000 | 165 °C (dec.)
